Test results taken from the CheMixHub ionic liquid set.
± gives the uncertainty stated by the source.

Assay: xn = mol fraction of the nth substance listed
Conditions: for viscosity: 101 kPa; for electrical conductivity: 100 kPa

CCCCCCCCn1cc[n+](C)c1.N#C[S-] + CN(C)C=O
viscosity [mPa·s]
Conditions | 293.15 K | 303.15 K | 313.15 K | 323.15 K | 333.15 K | 343.15 K | 353.15 K | 363.15 K
x1 = 0.004576 | 0.987 ± 0.025 | 0.872 ± 0.022 | 0.784 ± 0.022 | 0.707 ± 0.02 | 0.65 ± 0.018 | 0.595 ± 0.013 | 0.544 ± 0.015 | 0.504 ± 0.013
x1 = 0.007767 | 1.007 ± 0.023 | 0.891 ± 0.02 | 0.799 ± 0.019 | 0.722 ± 0.017 | 0.658 ± 0.015 | 0.604 ± 0.014 | 0.558 ± 0.013 | 0.515 ± 0.012
x1 = 0.01461 | 1.065 ± 0.024 | 0.948 ± 0.021 | 0.868 ± 0.02 | 0.779 ± 0.018 | 0.705 ± 0.016 | 0.642 ± 0.015 | 0.591 ± 0.014 | 0.543 ± 0.013
x1 = 0.02142 | 1.136 ± 0.026 | 0.994 ± 0.022 | 0.912 ± 0.02 | 0.814 ± 0.018 | 0.728 ± 0.016 | 0.673 ± 0.015 | 0.617 ± 0.014 | 0.563 ± 0.013
x1 = 0.02908 | 1.219 ± 0.027 | 1.057 ± 0.024 | 0.956 ± 0.021 | 0.848 ± 0.019 | 0.764 ± 0.017 | 0.713 ± 0.016 | 0.648 ± 0.015 | 0.598 ± 0.014
x1 = 0.03577 | 1.297 ± 0.029 | 1.134 ± 0.026 | 1.013 ± 0.023 | 0.897 ± 0.021 | 0.808 ± 0.019 | 0.738 ± 0.017 | 0.672 ± 0.015 | 0.618 ± 0.014

C[N+]1(CCOCCOCC[N+]2(C)CCCC2)CCCC1.N#C[N-]C#N.N#C[N-]C#N + CC[n+]1ccn(C)c1.N#C[N-]C#N + O=S(=O)([N-]S(=O)(=O)C(F)(F)F)C(F)(F)F.[Li+]
electrical conductivity [S/m]
Conditions | 298 K | 303 K | 313 K | 323 K | 333 K | 343 K
x1 = 0.2606, x2 = 0.6156 | 0.561 ± 0.022 | 0.658 ± 0.026 | 0.963 ± 0.039 | 1.27 ± 0.051 | 1.61 ± 0.064 | 1.94 ± 0.078
x1 = 0.2713, x2 = 0.6408 | 0.911 ± 0.036 | 1.01 ± 0.04 | 1.37 ± 0.055 | 1.71 ± 0.068 | 2.12 ± 0.085 | 2.54 ± 0.1
